The values below come from patent publication US10683297B2 (Sunshine Lake Pharma Co., Ltd., priority 2017, dated 2020).

A word on the IC50: it is the concentration that inhibits the measured activity by half. The CLint scaled is a measure of how fast metabolising enzymes remove a compound, apart from limits set by blood flow. Broadly, the AUC(0-t) is exposure summed from dosing to a finite time, without extrapolation to infinity. A higher AUC(0-t) goes with high exposure. For orientation: bioavailability means dose-corrected exposure relative to a reference, in per cent.

One data set deals with T1, Aurora-A (h) (Homo sapiens, UniProt O14965).
T1 construct: purchased Millipore UK Ltd (assays performed there as a service)
T1 sequence (O14965 1-403): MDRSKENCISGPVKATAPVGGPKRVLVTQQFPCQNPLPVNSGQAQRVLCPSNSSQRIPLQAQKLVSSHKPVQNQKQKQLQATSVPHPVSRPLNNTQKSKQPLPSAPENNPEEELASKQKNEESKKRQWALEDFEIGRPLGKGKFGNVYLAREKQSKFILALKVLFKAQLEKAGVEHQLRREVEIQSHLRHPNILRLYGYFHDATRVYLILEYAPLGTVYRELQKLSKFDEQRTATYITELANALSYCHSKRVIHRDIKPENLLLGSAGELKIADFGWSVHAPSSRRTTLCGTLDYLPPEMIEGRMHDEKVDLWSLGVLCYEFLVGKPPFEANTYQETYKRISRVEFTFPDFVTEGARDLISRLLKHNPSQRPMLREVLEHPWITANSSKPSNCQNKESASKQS
In words: Aurora-A (h) kinase assay. The format is biochemical. The note with it: [γ-33P-ATP] 10 μM or KM values; 40 minutes at room temperature. Here is the method:
(§1) The above assay procedure can be used to determine the IC50 for inhibition and/or the inhibition constant, Ki. […] The IC50 value is estimated by preparing a 10 point curve using a ½ log dilution series (for example, a typical curve may be prepared using the following compound concentrations: 3 μM, 1 μM, 0.3 μM, 0.1 μM, 0.03 μM, 0.01 μM, 0.003 μM, 0.001 μM, 0.0003 μM and 0 μM).
Aurora-A (h) is incubated with 8 mM MOPS pH 7.0, 0.2 mM EDTA, 200 μM LRRASLG (Kemptide), 10 mM MgAcetate and [γ-^33P-ATP] […] The reaction is initiated by the addition of the MgATP mix. After incubation for 40 minutes at room temperature, the reaction is stopped by the addition of 3% phosphoric acid solution. 10 μL of the reaction is then spotted onto a P30 filtermat and washed three times for 5 minutes in 75 mM phosphoric acid and once in methanol prior to drying and scintillation counting.
(§2) The kinase assays described herein were performed at Millipore UK Ltd, Dundee Technology Park, Dundee DD2 1SW, UK.

A further data set deals with T2, JAK1 (h) (Homo sapiens, UniProt P23458).
T2 construct: purchased Millipore UK Ltd (assays performed there as a service)
T2 sequence (P23458 whole entry): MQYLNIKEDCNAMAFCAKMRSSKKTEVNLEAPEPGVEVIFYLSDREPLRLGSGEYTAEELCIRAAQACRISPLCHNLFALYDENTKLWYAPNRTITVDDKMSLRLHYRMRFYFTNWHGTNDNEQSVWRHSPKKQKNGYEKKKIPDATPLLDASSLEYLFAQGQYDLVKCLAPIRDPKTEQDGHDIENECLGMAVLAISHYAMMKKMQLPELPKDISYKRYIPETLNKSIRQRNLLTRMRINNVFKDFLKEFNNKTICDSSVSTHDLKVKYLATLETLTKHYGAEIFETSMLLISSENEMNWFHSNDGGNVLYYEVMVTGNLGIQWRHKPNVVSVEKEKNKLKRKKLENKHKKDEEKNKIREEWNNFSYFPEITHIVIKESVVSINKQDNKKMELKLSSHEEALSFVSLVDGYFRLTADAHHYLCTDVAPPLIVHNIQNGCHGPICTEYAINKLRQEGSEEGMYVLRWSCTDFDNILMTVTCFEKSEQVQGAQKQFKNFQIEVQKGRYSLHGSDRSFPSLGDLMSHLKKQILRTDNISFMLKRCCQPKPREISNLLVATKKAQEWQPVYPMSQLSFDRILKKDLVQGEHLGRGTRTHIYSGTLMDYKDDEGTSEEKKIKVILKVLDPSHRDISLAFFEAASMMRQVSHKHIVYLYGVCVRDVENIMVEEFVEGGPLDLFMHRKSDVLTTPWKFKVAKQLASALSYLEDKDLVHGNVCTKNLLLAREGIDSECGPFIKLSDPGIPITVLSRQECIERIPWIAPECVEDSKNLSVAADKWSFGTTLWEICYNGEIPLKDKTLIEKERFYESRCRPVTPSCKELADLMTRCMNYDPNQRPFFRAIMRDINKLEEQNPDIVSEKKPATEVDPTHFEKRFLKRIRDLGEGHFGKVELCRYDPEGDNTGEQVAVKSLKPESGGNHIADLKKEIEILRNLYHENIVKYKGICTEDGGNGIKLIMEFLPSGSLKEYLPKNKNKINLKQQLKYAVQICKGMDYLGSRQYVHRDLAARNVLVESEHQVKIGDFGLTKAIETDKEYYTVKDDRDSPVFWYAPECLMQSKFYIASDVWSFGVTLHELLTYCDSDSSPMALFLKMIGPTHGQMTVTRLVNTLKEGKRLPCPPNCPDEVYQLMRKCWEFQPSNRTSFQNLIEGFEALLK
In words: JAK1 (h) kinase assay. The note with it: [γ-33P-ATP] 10 μM or KM values; 40 minutes at room temperature. The format is biochemical. Here is the method: as §1
JAK1 (h) is incubated with 20 mM Tris/HCl pH 7.5, 0.2 mM EDTA, 500 μM […], 10 mM MgAcetate and [γ-^33P-ATP] […] The reaction is initiated by the addition of the MgATP mix. After incubation for 40 minutes at room temperature, the reaction is stopped by the addition of 3% phosphoric acid solution. 10 μL of the reaction is then spotted onto a P30 filtermat and washed three times for 5 minutes in 75 mM phosphoric acid and once in methanol prior to drying and scintillation counting.
as §2

The target of another data set is T3, JAK2 (h) (Homo sapiens, UniProt O60674).
T3 construct: purchased Millipore UK Ltd (assays performed there as a service)
T3 sequence (O60674 whole entry): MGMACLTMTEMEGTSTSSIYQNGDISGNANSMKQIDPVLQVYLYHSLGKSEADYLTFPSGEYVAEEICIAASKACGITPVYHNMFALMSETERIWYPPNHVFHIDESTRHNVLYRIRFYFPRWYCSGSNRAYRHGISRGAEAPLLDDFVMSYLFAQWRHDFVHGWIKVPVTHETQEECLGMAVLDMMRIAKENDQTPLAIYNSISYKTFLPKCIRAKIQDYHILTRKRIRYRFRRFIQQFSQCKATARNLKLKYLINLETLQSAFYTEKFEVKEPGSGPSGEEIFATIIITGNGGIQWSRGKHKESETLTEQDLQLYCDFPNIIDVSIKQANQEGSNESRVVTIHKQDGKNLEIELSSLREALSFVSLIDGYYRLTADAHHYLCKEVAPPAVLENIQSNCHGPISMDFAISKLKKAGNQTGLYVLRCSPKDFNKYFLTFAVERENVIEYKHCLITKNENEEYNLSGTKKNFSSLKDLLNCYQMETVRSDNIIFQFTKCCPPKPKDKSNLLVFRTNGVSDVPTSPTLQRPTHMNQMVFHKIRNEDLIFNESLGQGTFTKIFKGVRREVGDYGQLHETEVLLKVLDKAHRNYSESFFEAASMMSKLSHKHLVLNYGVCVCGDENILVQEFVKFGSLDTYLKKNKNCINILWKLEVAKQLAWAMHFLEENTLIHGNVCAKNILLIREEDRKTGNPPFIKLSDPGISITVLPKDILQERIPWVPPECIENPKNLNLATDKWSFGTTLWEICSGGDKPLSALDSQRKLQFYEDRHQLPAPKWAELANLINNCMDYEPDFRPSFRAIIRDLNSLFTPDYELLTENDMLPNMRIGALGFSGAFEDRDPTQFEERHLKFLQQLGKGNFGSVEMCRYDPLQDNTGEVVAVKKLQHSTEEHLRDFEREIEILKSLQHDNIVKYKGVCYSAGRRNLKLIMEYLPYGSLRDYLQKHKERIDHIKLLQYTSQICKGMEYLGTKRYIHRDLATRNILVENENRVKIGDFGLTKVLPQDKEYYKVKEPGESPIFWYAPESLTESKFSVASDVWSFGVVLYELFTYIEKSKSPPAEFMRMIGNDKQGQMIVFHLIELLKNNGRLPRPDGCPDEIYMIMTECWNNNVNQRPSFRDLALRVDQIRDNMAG
In words: JAK2 (h) kinase assay. The data set is classed as biochemical. The note with it: [γ-33P-ATP] 10 μM or KM values; 40 minutes at room temperature. The method, then:
Kinase assays can be performed by measurement of incorporation of γ-^33P ATP into immobilized myelin basic protein (MBP). High binding white 384 well plates (Greiner) are coated with MBP (Sigma # M-1891) by incubation of 60 μL well of 20 μg/mL MBP in Tris-buffered saline (TBS; 50 mM Tris pH 8.0, 138 mM NaCl, 2.7 mM KCl) for 24 h at 4° C. Plates are washed 3× with 100 μL TBS. Kinase reactions are carried out in a total volume of 34 μL in kinase buffer (according to the need to make, for example, 5 mM Hepes pH 7.6, 15 mM NaCl, 0.01% bovine gamma globulin (Sigma #1-5506), 10 mM MgCl2, 1 mM DTT, 0.02% TritonX-100). Compound dilutions are performed in DMSO and added to assay wells to a final DMSO concentration of 1%. Each data point is measured in duplicate, and at least two duplicate assays are performed for each individual compound determination. Enzyme is added to final concentrations of 10 nM or 20 nM, for example. A mixture of unlabeled ATP and γ-^33P ATP is added to start the reaction (2×10^6 cpm of γ-^33P ATP per well (3000 Ci/mmole) and 10 μM unlabeled ATP, typically. The reactions are carried out for 1 hour at room temperature with shaking. Plates are washed 7× with TBS, followed by the addition of 50 μL well scintillation fluid (Wallac). Plates are read using a Wallac Trilux counter. This is only one format of such assays; various other formats are possible, as known to one skilled in the art.
as §1
JAK2 (h) is incubated with 8 mM MOPS pH 7.0, 0.2 mM EDTA, 100 μM […], 10 mM MgAcetate and [γ-^33P-ATP] […] The reaction is initiated by the addition of the MgATP mix. After incubation for 40 minutes at room temperature, the reaction is stopped by the addition of 3% phosphoric acid solution. 10 μL of the reaction is then spotted onto a P30 filtermat and washed three times for 5 minutes in 75 mM phosphoric acid and once in methanol prior to drying and scintillation counting.
as §2

Data set [1] in a line: Compound stability in rat liver microsomes. The format is in vitro ADME. The settings on record: for CLint scaled at 5 μM: liver microsomes, pH 7.4, in vivo CLint extrapolated from rat liver microsome incubation; for half-life at 5 μM: rat liver microsomes 0.5 mg protein/mL, compound 5 μM, NADPH 1.0 mM, pH 7.4, 37° C., read-out: Rat T1/2. The essentials: (§3)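 Compounds (5 μM) incubated at 37 °C with human or rat liver microsomes (0.5 mg protein/mL) and 1.0 mM NADPH in 100 mM phosphate buffer pH 7.4, 0.05% DMSO, in duplicate. Sampled 0–60 min, quantified by LC/MS/MS as % of time zero; CLint extrapolated.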

Data set [2] is described as follows: Pharmacokinetics after intravenous and oral administration in rats. The data set is classed as in vivo. The note with it: for Clearance (CL) after iv dosing / AUC(0-t) / half-life / Vd: dose 1 mg/kg (Ex. 9: 0.6, Ex. 18: 0.5, Ex. 50: 0.96 mg/kg), iv dosing; for AUC(0-t) / half-life / Vd / bioavailability: rat, plasma; for Vd: read-out: Vss; for bioavailability: oral (generally 5 or 10 mg/kg) versus iv dosing, read-out: F (oral bioavailability). The method in brief:
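Rats dosed i.v. (about 0.5, 0.6, 1 or 2 mg/kg) or p.o. (5 or 10 mg/kg) as solution, suspension or capsule. Plasma sampled over 24 h and quantified by LC/MS/MS in MRM mode with ESI.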

A short description of data set [3]: Compound stability in human liver microsomes. The data set is classed as in vitro ADME. The note with it: for half-life at 5 μM: human liver microsomes 0.5 mg protein/mL, compound 5 μM, NADPH 1.0 mM, pH 7.4, 37° C., read-out: Human T1/2; for CLint scaled at 5 μM: liver microsomes, pH 7.4, in vivo CLint extrapolated from human liver microsome incubation. The method in brief: as §3

For the compound `Cc1cn2ccc(Nc3ncc(Cl)c(NC4CCN(c5ccc(C#N)nn5)CC4)n3)cc2n1` [Example 27, 6-(4-((5-chloro-2-((2-methylimidazo[1,2-a]pyridin-7-yl)amino)pyrimidin-4-yl)amino)piperidin-1-yl)pyridazine-3-carbonitrile], the 50% inhibitory concentration (IC50) was 467 nM against Aurora-A (h), less than 0.3 nM on JAK1 (h) and 10 nM on JAK2 (h).

Take `N#Cc1ccc(N2CCC(Nc3nc(Nc4ccn5cc(C(F)F)nc5c4)ncc3Cl)CC2)nn1` [Example 28, 6-(4-((5-chloro-2-((2-(difluoromethyl)imidazo[1,2-a]pyridin-7-yl)amino)pyrimidin-4-yl)amino)piperidin-1-yl)pyridazine-3-carbonitrile]: in data set [1], the intrinsic metabolic clearance (CLint scaled) at 5 μM is 164 mL/min/kg and the half-life at 5 μM came out at 15.1 min. For the same compound, at JAK1 (h), it took 0.5 nM to reach half-maximal inhibition (IC50). Moreover, in data set [2], the “Clearance (CL) after iv dosing” value came out at 14 mL/min/kg, the AUC(0-t) came to 1220 ng·h/mL, the half-life was 33.6 min and the Vd worked out at 0.56 L/kg. Besides, the bioavailability in data set [2] came out at 56.1%. Also, in data set [3], the half-life at 5 μM was 41.5 min and the intrinsic clearance (CLint scaled) at 5 μM is 41.9 mL/min/kg.

As for `CC(C)(O)Cc1cn2ccc(Nc3ncc(Cl)c(NC4CCN(c5ccc(C#N)nn5)CC4)n3)cc2n1` [Example 38, 6-(4-((5-chloro-2-((2-(2-hydroxy-2-methylpropyl)imidazo[1,2-a]pyridin-7-yl)amino)pyrimidin-4-yl)amino)piperidin-1-yl)pyridazine-3-carbonitrile], the values for the IC50 on Aurora-A (h), against JAK1 (h) and on JAK2 (h) were 440 nM, 0.9 nM and 41 nM, respectively.

In the case of `CC(C)(O)Cc1cnc2cc(Nc3ncc(Cl)c(NC4CCN(c5ccc(C#N)cn5)CC4)n3)ccn12` [Example 42, 6-(4-((5-chloro-2-((3-(2-hydroxy-2-methylpropyl)imidazo[1,2-a]pyridin-7-yl)amino)pyrimidin-4-yl)amino)piperidin-1-yl)nicotinonitrile], the half-maximal inhibitory concentration (IC50) at Aurora-A (h) is 1460 nM; against JAK1 (h) it was less than 0.3 nM; against JAK2 (h) it was 23 nM.

For the compound `CC(O)Cc1nc2cc(Nc3ncc(Cl)c(NC4CCN(c5ccc(C#N)cn5)CC4)n3)ccn2n1` (centres unmarked) [Example 57, 6-(4-((5-chloro-2-((2-(2-hydroxypropyl)-[1,2,4]triazolo[1,5-a]pyridin-7-yl)amino)pyrimidin-4-yl)amino)piperidin-1-yl)nicotinonitrile], the figures for the 50% inhibitory concentration (IC50) against Aurora-A (h), on JAK1 (h) and on JAK2 (h) were more than 300 nM, 0.9 nM and 5 nM, respectively.

For `COC(=O)Cc1nc2cc(Nc3ncc(Cl)c(NC4CCN(c5ccc(C#N)nn5)CC4)n3)ccn2n1` [Example 58, methyl 2-(7-((5-chloro-4-((1-(6-cyanopyridazin-3-yl)piperidin-4-yl)amino)pyrimidin-2-yl)amino)-[1,2,4]triazolo[1,5-a]pyridin-2-yl)acetate], the values for the IC50 at Aurora-A (h), against JAK1 (h) and at JAK2 (h) were more than 300 nM, 0.8 nM and 27 nM, respectively.

As to `CC(C)(O)c1cnc2cc(Nc3ncc(Cl)c(NC4CCN(c5ccc(C#N)nn5)CC4)n3)ccn12` [Example 66, 6-(4-((5-chloro-2-((3-(2-hydroxypropan-2-yl]imidazo[1,2-a]pyridin-7-yl)amino)pyrimidin-4-yl)amino)piperidin-1-yl)pyridazine-3-carbonitrile], in data set [1], the CLint scaled at 5 μM is 68.5 mL/min/kg and the half-life at 5 μM is 36.2 min. The same compound displayed an IC50 against JAK1 (h) of 0.3 nM. Also, in data set [3], the half-life at 5 μM came out at 25.6 min and the intrinsic clearance (CLint scaled) at 5 μM is 67.9 mL/min/kg.

With `CC(C)(O)c1cn2ccc(Nc3ncc(Cl)c(NC4CCN(c5ccc(C#N)nn5)CC4)n3)cc2n1` [Example 71], in data set [1], the CLint scaled at 5 μM was 438 mL/min/kg and the half-life at 5 μM was 5.67 min. The compound also came in with an IC50 on JAK1 (h) of 0.9 nM. In data set [3], the half-life at 5 μM amounted to 18.9 min and the intrinsic metabolic clearance (CLint scaled) at 5 μM is 91.8 mL/min/kg.

For the compound `CC(C)(O)Cc1cnc2cc(Nc3ncc(Cl)c(NC4CCN(c5ccc(C#N)nn5)CC4)n3)ccn12` [Example 80, 6-(4-((5-chloro-2-((3-(2-hydroxy-2-methylpropyl)imidazo[1,2-a]pyridin-7-yl)amino)pyrimidin-4-yl)amino)piperidin-1-yl)pyridazine-3-carbonitrile], the results for the intrinsic metabolic clearance (CLint scaled) at 5 μM in data set [1] and in data set [3] were 131 mL/min/kg and 42.7 mL/min/kg, respectively. Also, the values for the half-life at 5 μM in data set [1] and in data set [3] were 19 min and 40.7 min, respectively. The same compound registered a 50% inhibitory concentration (IC50) at JAK1 (h) of 0.6 nM.

Take `CC(C)(O)c1nc2cc(Nc3ncc(Cl)c(NC4CCN(c5ccc(C#N)cc5)CC4)n3)ccn2n1` [Example 81, 4-(4-((5-chloro-2-((2-(2-hydroxypropan-2-yl)-[1,2,4]triazolo[1,5-a]pyridin-7-yl)amino)pyrimidin-4-yl)amino)piperidin-1-yl)benzonitrile]: in data set [1], the intrinsic clearance (CLint scaled) at 5 μM was 25.5 mL/min/kg and the half-life at 5 μM amounted to 97.3 min. At JAK1 (h), this compound showed an IC50 of less than 0.3 nM. For the same compound, in data set [2], the “Clearance (CL) after iv dosing” value stood at 162 mL/min/kg, the AUC(0-t) is 1710 ng·h/mL, the half-life is 79.8 min and the Vd worked out at 0.946 L/kg. For the same compound, the bioavailability in data set [2] is 99.6%. Moreover, in data set [3], the half-life at 5 μM stood at 419 min and the intrinsic clearance (CLint scaled) at 5 μM is 4.1 mL/min/kg.
